Patent US20090104148A1, “Treatment and prevention of joint disease” (priority 2007, published 2009)
“Also recorded” adds a separate entry of the source.

Key:
Format in all cases: in vivo, Male Lewis rats
[1] = tested on: ACL-transection (ACLT) model; experiment: SF lavage lubricin levels by sandwich ELISA, ACL-transection model, Example 3; settings: etanercept-treated ACLT joints vs non-treated ACLT joints, 0.5 mg/kg subcutaneously days 1, 3, 5, 7, 9, 11, 13, 2 weeks following ACLT
Description: (§1) The following reagents and methods were used to evaluate inhibition of the effects of TNF-α by etanercept and the preservation of joint lubrication and decrease cartilage damage following an ACL injury. ACL-transection (ACLT) model and entanercept administration: Male Lewis rats 7-8 weeks were assigned to either an ACL-transection group (n=5), etanercept-treated ACL-transection group (n=5) or a sham-group (n=4). Etanercept was given subcutaneously at 0.5 mg/kg on days 1, 3, 5, 7, 9, 11, and 13 following ACLT. At 14 days following surgery, ACLT, contralateral (CL) and sham (S) joints were harvested and lavaged. Lavaging was performed by injecting 100 μl in the joint capsule, flexing and extending the joint for ten times and aspirating 50 μl of fluid. SF Lubricin levels: Lubricin levels were determined using sandwich ELISA employing a lubricin-specific monoclonal antibody, and peanut agglutinin (PNA). Ex-vivo joint μ: Articular joints' μ values were determined using modified Stanton pendulum (Elsaid K A et al, Arthritis Rheum 2007; 56:108-116). sGAG levels in SF lavages: Total sGAG levels were determined by Alcian blue binding assay.

[2] = tested on: ACL-transection model; experiment: SF lavage lubricin levels by sandwich ELISA, early vs late etanercept, ACL-transection model, Example 4; settings: 28 days following transection
Description: (§2) Etanercept was administered to animals, and condroprotection was evaluated using an ACL-transection model. Male Lewis rats 7-8 weeks were assigned to either an ACL-transection group (n=5), 2 etanercept-treated ACLT groups (n=12, 6 in each group) or a sham surgery group (n=4). Etanercept was given subcutaneously at 0.5 mg/kg on days 8, and 15 following transection (Treatment A) or on days 15 and 22 (Treatment B). At 28 days following transection, ACL-transected (ACLT), contralateral (CL) and sham joints were harvested and lavaged. Lavaging was performed by injecting 50 μl of normal saline in the joint capsule, flexing and extending the joint for ten times and then aspirating 30 μl of fluid.
(§3) SF lubricin levels were determined using a sandwich ELISA employing a lubricin-specific monoclonal antibody such as 9G3, and peanut agglutinin. Surface-associated lubricin coverage was calculated from 9G3-stained histological specimens. Quantitiation of lubricin staining intensity was calculated using Image Pro-Plus software (Media Cybernetics, MD, USA) with pre-determined threshold parameters and expressed as percentage of lubricin surface coverage. An average of lubricin surface coverage of the medial and lateral regions of femur and tibial cartilage surfaces was calculated.

[3] = tested on: ACL-transection model; experiment: Surface-associated lubricin coverage from 9G3-stained histological specimens, ACL-transection model, Example 4
Description: as §2, §3

[4] = tested on: ACL-transection (ACLT) model; experiment: sGAG levels in SF lavages by Alcian blue binding assay, ACL-transection model, Example 3; settings: etanercept-treated vs non-treated joints; 0.5 mg/kg subcutaneously days 1-13; 2 weeks following ACLT
Description: as §1

[5] = tested on: ACL-transection model; experiment: Ex-vivo joint coefficient of friction (μ), modified Stanton pendulum, ACL-transection model, Example 4; settings: 28 days following transection
[6] = tested on: ACL-transection (ACLT) model; experiment: Ex-vivo joint coefficient of friction (μ), modified Stanton pendulum, ACL-transection model, Example 3; settings: etanercept-treated ACLT joints vs non-treated ACLT joints; 0.5 mg/kg subcutaneously days 1-13; 2 weeks following ACLT
Description: as §1

Substance: etanercept
- Lubricin SF lavage levels [1]: significantly (p<0.001) higher
- Lubricin SF lavage levels ([1]; listed as ENBREL™): upregulation of lubricin
- SF lavage lubricin levels ([2]; Treatment A (0.5 mg/kg s.c. days 8 and 15), ACLT joints, vs ACLT control and treatment B): significantly (p<0.01) higher
- SF lavage lubricin levels in CL joints ([2]; contralateral (CL) joints, treatments A and B vs other groups): comparable across the different groups
- Lubricin coverage in the CL joints ([3]; contralateral (CL) joints, treatments A and B vs other groups, 28 days following transection): comparable across the different groups
- lubricin layer in the superficial zone ([3]; inflamed rat joint following an ACL injury, ENBREL alone): reestablishes some of the lubricin layer in the superficial zone
- Lubricin coverage of articular surfaces (percentage surface coverage) ([3]; untreated ACLT joints compared to treatments A and B (0.5 mg/kg s.c.), 28 days following transection): significantly (p<0.01) lower than in treatment-A, treatment-B; also recorded: significantly (p<0.01) lower in the ACLT joints compared to treatments A, B
- sGAG SF lavage levels [4]: significantly (p<0.001) lower
- mean coefficient of friction (μ) ([5]; Treatment A (0.5 mg/kg s.c. days 8 and 15), ACLT joints): 6.5*10^−4
- mean coefficient of friction (μ) ([5]; Treatment A (0.5 mg/kg s.c. days 8 and 15), CL joints): 4.7*10^−4
- mean coefficient of friction (μ) ([5]; Treatment B (0.5 mg/kg s.c. days 15 and 22), ACLT joints): 6.6*10^−4
- mean coefficient of friction (μ) ([5]; Treatment B (0.5 mg/kg s.c. days 15 and 22), CL joints): 4.9*10^−4
- joints' μ values, treatments A and B vs untreated ACLT and sham joints ([5]; treatments A and B): lower than the μ values of ACLT joints
- ex-vivo joint coefficient of friction (μ) [6]: significantly (p=0.021) lower
